# Values quoted from earlier work as cited in US20030035836A1, “Oral controlled release pharmaceutical composition for once-a-day therapy for the treatment and prophylaxis of cardiac and circulatory diseases” (priority 2001, published 2003).
# Conditions: oral administration; considerable first pass metabolism
smiles,measurement,value
"COc1ccccc1OCCNCC(O)COc1cccc2[nH]c3ccccc3c12 (racemic) [Carvedilol, 1-(9H-carbazol-4-yloxy)-3-[[2-(2-methoxyphenoxy)ethyl]amino]-2-propanol]",absolute bioavailability,25%
